One data set has as its target T1, Testosterone (Rattus norvegicus, UniProt P15207).
T1 sequence (P15207 651-882 limits assumed): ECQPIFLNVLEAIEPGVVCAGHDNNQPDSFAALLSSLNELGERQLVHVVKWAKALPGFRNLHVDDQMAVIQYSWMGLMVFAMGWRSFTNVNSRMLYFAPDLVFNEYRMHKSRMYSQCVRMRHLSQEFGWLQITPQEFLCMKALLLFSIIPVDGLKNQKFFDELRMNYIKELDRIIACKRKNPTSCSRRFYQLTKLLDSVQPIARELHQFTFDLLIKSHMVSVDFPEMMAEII
Put plainly: receptor screen, Testosterone. In kind it is binding. Particulars: inactive = displacement at 10,000 nM less than 75%.

The next data set has as its target T2, Progesterone (Bos taurus, UniProt F1N712).
T2 sequence (F1N712 1-914): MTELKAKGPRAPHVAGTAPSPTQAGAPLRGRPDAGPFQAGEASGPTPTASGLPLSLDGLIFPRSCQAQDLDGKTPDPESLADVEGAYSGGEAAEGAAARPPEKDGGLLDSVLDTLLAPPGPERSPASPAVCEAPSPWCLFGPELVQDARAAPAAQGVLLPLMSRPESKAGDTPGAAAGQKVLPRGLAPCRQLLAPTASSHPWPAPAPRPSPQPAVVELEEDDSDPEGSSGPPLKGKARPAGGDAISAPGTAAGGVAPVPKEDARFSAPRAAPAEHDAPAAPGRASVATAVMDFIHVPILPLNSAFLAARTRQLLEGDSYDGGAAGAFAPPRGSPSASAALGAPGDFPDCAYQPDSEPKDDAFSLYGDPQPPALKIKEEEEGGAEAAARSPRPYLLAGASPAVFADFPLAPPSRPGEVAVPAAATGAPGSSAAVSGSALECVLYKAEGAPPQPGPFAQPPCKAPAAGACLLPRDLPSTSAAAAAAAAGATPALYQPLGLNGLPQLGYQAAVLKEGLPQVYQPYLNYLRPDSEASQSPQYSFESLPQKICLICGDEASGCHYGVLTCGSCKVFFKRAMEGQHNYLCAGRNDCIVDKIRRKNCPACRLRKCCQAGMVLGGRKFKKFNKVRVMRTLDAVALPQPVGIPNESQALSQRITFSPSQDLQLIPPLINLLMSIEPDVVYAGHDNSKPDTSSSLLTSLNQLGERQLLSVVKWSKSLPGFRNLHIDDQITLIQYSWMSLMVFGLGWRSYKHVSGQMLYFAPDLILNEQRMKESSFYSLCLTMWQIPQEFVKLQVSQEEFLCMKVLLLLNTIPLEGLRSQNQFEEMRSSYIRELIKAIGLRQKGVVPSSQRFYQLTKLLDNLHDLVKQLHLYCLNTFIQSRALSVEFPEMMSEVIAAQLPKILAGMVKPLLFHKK
Put plainly: receptor screen, Progesterone. Particulars: [3H]R-5020, inactive = displacement at 10,000 nM less than 75%. In kind it is binding, Bovine.

Another data set has as its target Dopamine D2L (Homo sapiens, UniProt P14416). Put plainly: receptor screen, Dopamine D2L. Particulars: inactive = displacement at 10,000 nM less than 75%. Type of data set: binding.
In data set [1] the test system is extracellular DA levels in the NAC shell. Put plainly: In vivo microdialysis, extracellular DA in NAC shell. Particulars: rat.
A further data set has as its target Muscarinic M3 (Homo sapiens, UniProt P20309). Nature of the data set: receptor screen, Muscarinic M3. In kind it is binding. Particulars: read-out: Ki Muscarinic M3, [3H]N-methylscopolamine.
A further data set addresses T3, Adenosine A1 (Homo sapiens, UniProt P30542).
T3 sequence (P30542 1-326): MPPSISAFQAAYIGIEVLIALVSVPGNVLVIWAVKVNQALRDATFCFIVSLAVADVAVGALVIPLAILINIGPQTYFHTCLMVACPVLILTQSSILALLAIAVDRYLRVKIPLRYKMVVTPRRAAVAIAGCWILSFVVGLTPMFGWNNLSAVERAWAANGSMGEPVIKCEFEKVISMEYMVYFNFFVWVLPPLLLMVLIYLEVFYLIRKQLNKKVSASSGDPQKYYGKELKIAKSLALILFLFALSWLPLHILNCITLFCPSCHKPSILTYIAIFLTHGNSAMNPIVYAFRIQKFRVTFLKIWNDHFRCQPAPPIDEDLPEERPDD
Put plainly: receptor screen, Adenosine A1. Type of data set: binding. As to conditions: [3H]DPCPX, inactive = displacement at 10,000 nM less than 75%.

In the next data set the target is Estrogen ERα (Homo sapiens, UniProt P03372). Put plainly: receptor screen, Estrogen ERα. Particulars: inactive = displacement at 10,000 nM less than 75%. Type of data set: binding.
The next data set deals with rats. Put plainly: Place conditioning. In kind it is in vivo. As to conditions: rat, i.p. (1 to 10 mg/kg), injected immediately before conditioning sessions.
The target in the next data set is T4, Muscarinic M2 (Homo sapiens, UniProt P08172).
T4 sequence (P08172 1-466): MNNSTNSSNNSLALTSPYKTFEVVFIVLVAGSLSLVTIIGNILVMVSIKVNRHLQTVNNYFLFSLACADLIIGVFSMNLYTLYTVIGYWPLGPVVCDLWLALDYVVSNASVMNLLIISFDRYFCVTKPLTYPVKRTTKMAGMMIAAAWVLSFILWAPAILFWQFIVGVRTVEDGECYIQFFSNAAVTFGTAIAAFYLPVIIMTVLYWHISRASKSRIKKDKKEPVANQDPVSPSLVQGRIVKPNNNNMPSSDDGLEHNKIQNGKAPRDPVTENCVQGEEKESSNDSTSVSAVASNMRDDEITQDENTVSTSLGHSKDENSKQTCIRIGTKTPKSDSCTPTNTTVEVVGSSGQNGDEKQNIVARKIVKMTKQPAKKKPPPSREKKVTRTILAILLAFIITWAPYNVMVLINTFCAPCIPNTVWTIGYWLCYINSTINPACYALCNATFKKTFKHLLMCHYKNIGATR
Nature of the data set: receptor screen, Muscarinic M2. Type of data set: binding. Particulars: read-out: Ki Muscarinic M2, [3H]N-methylscopolamine.

The next data set has as its target T5, Glucocorticoid (Homo sapiens, UniProt P04150).
T5 sequence (P04150 1-777): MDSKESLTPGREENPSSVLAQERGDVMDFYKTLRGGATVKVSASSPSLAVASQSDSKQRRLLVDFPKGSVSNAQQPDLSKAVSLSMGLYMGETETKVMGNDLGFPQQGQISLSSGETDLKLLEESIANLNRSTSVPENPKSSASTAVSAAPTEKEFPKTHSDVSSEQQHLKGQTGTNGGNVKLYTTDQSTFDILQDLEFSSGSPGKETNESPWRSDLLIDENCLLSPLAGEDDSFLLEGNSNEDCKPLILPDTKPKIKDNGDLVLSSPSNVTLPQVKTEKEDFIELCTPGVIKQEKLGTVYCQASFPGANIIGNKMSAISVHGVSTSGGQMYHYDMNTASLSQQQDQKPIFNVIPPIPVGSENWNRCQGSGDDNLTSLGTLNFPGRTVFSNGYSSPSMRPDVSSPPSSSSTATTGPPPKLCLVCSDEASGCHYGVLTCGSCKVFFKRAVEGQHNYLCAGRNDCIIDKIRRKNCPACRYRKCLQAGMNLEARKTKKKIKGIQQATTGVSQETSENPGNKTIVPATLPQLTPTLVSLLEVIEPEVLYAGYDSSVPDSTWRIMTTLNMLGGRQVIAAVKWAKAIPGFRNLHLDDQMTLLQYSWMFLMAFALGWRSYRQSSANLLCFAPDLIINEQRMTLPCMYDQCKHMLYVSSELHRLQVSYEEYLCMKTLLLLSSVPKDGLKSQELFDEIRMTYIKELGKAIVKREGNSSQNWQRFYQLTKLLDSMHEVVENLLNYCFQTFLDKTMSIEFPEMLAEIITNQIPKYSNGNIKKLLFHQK
Put plainly: receptor screen, Glucocorticoid. Type of data set: binding. Particulars: inactive = displacement at 10,000 nM less than 75%.

Data set [2] relates to Glutamate, NMDA, phencyclidine. Nature of the data set: receptor screen, Glutamate, NMDA, phencyclidine. Type of data set: binding, Rat. As to conditions: [3H]TCP, inactive = displacement at 10,000 nM less than 75%.
The next data set concerns the target K+ Channel hERG (Homo sapiens, UniProt Q12809). Put plainly: receptor screen, K+ Channel hERG. In kind it is binding. Particulars: read-out: Ki K+ Channel hERG; receptor screen, [3H]Astemizole.
The target in another data set is DAT. As to conditions: read-out: Ki DAT; ref Newman and Katz (2009); cited from earlier work.
In a further data set the target is SERT. Particulars: read-out: Ki SERT; ref Woolverton et al., Psychopharmacology (2001); cited from earlier work.
A further data set deals with NET. As to conditions: read-out: Ki NET; ref Woolverton et al., Psychopharmacology (2001); cited from earlier work.

Chain of Muscarinic M3 (P20309 whole entry): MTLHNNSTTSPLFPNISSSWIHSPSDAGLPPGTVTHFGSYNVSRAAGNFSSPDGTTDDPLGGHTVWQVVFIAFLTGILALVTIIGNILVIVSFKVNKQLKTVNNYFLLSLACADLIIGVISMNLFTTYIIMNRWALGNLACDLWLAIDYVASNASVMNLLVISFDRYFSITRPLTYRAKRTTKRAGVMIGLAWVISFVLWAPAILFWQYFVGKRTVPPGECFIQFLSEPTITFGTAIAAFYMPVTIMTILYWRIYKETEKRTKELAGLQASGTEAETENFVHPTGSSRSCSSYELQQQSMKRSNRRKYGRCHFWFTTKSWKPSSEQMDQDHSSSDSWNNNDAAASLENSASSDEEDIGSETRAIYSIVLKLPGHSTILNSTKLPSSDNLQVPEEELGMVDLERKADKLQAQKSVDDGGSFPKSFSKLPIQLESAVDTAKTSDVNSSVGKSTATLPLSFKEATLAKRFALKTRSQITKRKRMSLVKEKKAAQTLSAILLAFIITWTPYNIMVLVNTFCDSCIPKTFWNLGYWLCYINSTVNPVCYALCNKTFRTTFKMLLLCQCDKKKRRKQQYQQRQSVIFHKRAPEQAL
Chain of Estrogen ERα (P03372 whole entry): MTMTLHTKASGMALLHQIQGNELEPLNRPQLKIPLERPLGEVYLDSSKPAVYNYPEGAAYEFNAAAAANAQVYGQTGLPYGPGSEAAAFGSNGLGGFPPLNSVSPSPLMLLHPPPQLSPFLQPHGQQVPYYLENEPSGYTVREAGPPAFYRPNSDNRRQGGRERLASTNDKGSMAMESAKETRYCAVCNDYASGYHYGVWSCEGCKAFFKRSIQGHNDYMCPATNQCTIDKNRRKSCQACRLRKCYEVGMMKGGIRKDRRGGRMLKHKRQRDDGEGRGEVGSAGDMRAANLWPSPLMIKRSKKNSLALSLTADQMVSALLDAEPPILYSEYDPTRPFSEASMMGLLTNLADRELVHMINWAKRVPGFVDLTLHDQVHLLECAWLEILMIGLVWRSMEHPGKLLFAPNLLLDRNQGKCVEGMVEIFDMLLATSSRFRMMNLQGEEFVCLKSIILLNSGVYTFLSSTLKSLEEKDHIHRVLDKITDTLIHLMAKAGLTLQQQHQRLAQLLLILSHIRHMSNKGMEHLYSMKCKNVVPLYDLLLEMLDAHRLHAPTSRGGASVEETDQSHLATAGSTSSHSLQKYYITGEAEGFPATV
Chain of Dopamine D2L (P14416 whole entry): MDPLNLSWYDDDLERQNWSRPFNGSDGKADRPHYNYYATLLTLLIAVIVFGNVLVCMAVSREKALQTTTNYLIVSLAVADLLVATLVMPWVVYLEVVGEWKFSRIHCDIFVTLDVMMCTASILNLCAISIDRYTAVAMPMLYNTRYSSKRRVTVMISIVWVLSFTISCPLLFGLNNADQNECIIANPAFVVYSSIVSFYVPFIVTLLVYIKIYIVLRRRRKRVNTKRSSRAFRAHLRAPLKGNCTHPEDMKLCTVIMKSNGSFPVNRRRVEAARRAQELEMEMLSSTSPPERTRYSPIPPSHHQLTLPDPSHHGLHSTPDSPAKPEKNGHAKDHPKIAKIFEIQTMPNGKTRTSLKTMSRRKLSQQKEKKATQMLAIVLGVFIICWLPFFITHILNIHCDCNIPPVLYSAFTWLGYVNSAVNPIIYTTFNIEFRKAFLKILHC
Chain of K+ Channel hERG (Q12809 whole entry): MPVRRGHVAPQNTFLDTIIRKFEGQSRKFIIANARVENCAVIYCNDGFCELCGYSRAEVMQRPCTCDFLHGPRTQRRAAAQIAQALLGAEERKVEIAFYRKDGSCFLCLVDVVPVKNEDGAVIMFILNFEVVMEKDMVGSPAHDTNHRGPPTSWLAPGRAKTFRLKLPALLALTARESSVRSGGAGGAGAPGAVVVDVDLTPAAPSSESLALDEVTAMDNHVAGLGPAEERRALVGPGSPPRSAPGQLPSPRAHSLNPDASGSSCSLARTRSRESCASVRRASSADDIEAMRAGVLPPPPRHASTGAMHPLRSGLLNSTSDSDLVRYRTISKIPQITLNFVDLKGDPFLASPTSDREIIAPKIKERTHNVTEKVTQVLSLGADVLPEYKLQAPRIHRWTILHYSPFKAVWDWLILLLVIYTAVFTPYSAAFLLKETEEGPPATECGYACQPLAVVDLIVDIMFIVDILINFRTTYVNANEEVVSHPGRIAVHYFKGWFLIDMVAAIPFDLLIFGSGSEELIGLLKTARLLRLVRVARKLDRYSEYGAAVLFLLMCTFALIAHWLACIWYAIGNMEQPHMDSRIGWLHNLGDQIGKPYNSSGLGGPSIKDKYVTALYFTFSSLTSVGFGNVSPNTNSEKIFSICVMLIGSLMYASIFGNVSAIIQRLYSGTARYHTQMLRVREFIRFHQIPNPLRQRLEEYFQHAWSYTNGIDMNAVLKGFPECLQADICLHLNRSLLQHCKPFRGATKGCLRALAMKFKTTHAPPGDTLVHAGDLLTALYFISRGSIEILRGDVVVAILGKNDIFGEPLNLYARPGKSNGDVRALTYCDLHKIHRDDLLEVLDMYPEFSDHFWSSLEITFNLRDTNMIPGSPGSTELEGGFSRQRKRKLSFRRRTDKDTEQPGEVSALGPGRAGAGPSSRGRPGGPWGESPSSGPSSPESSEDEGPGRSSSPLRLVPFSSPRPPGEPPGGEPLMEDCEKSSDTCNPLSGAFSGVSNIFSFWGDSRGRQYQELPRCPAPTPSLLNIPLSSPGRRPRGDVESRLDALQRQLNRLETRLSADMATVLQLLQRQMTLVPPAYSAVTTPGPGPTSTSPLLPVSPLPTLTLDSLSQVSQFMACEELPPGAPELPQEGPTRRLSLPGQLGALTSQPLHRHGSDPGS

In general, Ki refers to the equilibrium dissociation constant of an inhibitor or competing ligand from its target. With `CN1C2CCC1CC(OC(c1ccc(Cl)cc1)c1ccc(Cl)cc1)C2` (stereo not drawn) [4,4-diCl-BZT, 4′-chloro-4″-chloro-3α-(diphenylmethoxy)tropane], the “Ki Testosterone” value at Testosterone was “inactive”. In addition, the “Ki Progesterone” value on Progesterone is “inactive”. Further, at Dopamine D2L, the “Ki Dopamine D2L” value was “inactive”. Also, the figures for the “effect on dialysate DA levels from the NAC shell” value in [1] (1.0 mg/kg i.p.), in data set [1] (3.0 mg/kg i.p.) and in data set [1] (10 mg/kg i.p.) were “did not significantly affect DA levels”, “did not significantly affect DA levels” and “significant increase in DA levels”, respectively. In addition, the “time after injection at which DA exceeded 165% of basal values” in [1] (10 mg/kg i.p.) is on record as no more than 20 min. Besides, the “time after injection until which DA increase continued (peak)” value in data set [1] (10 mg/kg i.p.) was “about 140 min”. Further, the Ki at Muscarinic M3 was 10 nM; on Muscarinic M2, 640 nM. In addition, on Adenosine A1, the “Ki Adenosine A1” value is “inactive”. The “Ki Estrogen ERα” value at Estrogen ERα was “inactive”. Also, the “place conditioning (time allocated to compound-paired compartment)” value in the data set with rats is “without significant place-conditioning effects”. Moreover, the “Ki Glucocorticoid” value at Glucocorticoid is “inactive”.
As for `CN1C2CCC1CC(OC(c1ccccc1)c1ccc(Cl)cc1)C2` (stereo not drawn) [4-Cl-BZT, 4′-chloro-3α-(diphenylmethoxy)tropane], in [2], the “Ki Glutamate, NMDA, phencyclidine” value is “inactive”. In addition, the Ki was 0.384 ± 0.043 nM on Muscarinic M3; 804 ± 300 nM at K+ Channel hERG; 10.5 ± 1.21 nM on DAT; 5120 ± 395 nM at SERT; 1470 ± 180 nM on NET; 5.88 ± 0.63 nM on Muscarinic M2. The “Ki Adenosine A1” value on Adenosine A1 was “inactive”. Further, in the data set on rats, the “place conditioning (time allocated to compound-paired compartment)” value is given as “did not increase the time allocated to the compound-paired compartment”.

Values taken from PMC3758386 (Psychopharmacology, 2013).
